{
  "source": "patent US6368788B1",
  "about": "(priority 1987, dated 2002)",
  "key": {"M. bovis": {"test_system": "M. bovis", "assay_type": "in vivo, mice", "settings": "Group 8; INH 5 mg/kg sc daily"}, "Rauscher MuLV": {"test_system": "Rauscher MuLV", "assay": "Anti-viral response to Rauscher MuLV", "assay_type": "in vivo, mice", "settings": "days −2, −1, 0, +1, and +2; for Viremia: ± SEM", "from_the_text": "Innate mechanisms of anti-viral immunity are important to survival of the host. The Rauscher murine leukemia virus (MuLV) is an example of a highly virulent animal retrovirus infection, first isolated and characterized by Dr. Rauscher from BALB/c mouse tissues in 1962. […] The virus employed in present GLP/blinded study was a murine leukemia complex known to induce progressive erythroleukemia in mice (i.e., Rauscher MuLV and replication-defective Rauscher spleen focus-forming virus). Disease manifested within about 6 days with death by about 50 days. Measurements of splenomegaly, blood reverse transcriptase, virus plaque assays (i.e., XC-plaque assay for viremia using SC-1 host cells) and serum anti-viral antibody titers were used to assess infection. Spleens achieved about 2.0 grams in weight within 21 days of infection, as compared with a normal spleen weights in an uninfected animals of about 0.1 gram.\nMice were inoculated with Rauscher MuLV complex (0.1 ml/7.8×10^4 PFU/mL) on day 0 and sacrificed on day 21. Test groups were comprised of 10 mice and control groups 6 mice. Control articles included saline and AZT (in drinking water at about 1.25 mg/mouse/day≈63 mg/kg/day/mouse). […] A non-infected group of mice was also sacrificed on day 21 to provide normal control values.\nIn EXAMPLE 38, SC-1 cells were originally derived from murine embryos, and XC cells (a rat tumor cell line induced by Rous Sarcoma Virus) were obtained from the ATCC in Rockville, Md."}, "YAC-1 target cells": {"test_system": "YAC-1 target cells", "assay": "NK cytotoxic activity of splenocytes on YAC-1 target cells", "assay_type": "in vivo, C3H/HeJ mice", "settings": "for Cytotoxicity Change (%): vs saline"}, "[1]": {"assay": "Survival in LPS-induced endotoxic shock", "assay_type": "in vivo, CBA mice", "method": "The mortality results were evaluated using the Litchfield-Wilcoxon's probit analysis method and a computer program written to conduct probit analyses."}},
  "note": "Marks after values point to notes of the source that are not given here.",
  "data": [
    {"compound": "NNC(=O)c1ccncc1", "note": "[Isoniazid, reference compound]", "values": [
      {"measurement": "Survival Mean", "setting": "M. bovis", "result": "57 ± 2"}
    ]},
    {"compound": "Glu-Trp", "values": [
      {"measurement": "Reduction Splenomegaly (%)", "setting": "Rauscher MuLV; 0.002 mg/kg", "result": "−9", "unit": "%"},
      {"measurement": "Spleen Weight (mean ± SD)", "setting": "Rauscher MuLV; 0.002 mg/kg", "result": "0.49 ± 0.31"},
      {"measurement": "Reduction Splenomegaly (%)", "setting": "Rauscher MuLV; 0.005 mg/kg", "result": "−3", "unit": "%"},
      {"measurement": "Spleen Weight (mean ± SD)", "setting": "Rauscher MuLV; 0.005 mg/kg", "result": "0.47 ± 0.29"},
      {"measurement": "Viremia", "setting": "Rauscher MuLV; 0.005 mg/kg", "result": "3.25 ± 0.27", "unit": "log10PFU/ml"},
      {"measurement": "Reduction Splenomegaly (%)", "setting": "Rauscher MuLV; 0.02 mg/kg", "result": 12, "unit": "%"},
      {"measurement": "Spleen Weight (mean ± SD)", "setting": "Rauscher MuLV; 0.02 mg/kg", "result": "0.42 ± 0.32"},
      {"measurement": "Reduction Splenomegaly (%)", "setting": "Rauscher MuLV; 0.05 mg/kg", "result": 30, "unit": "%"},
      {"measurement": "Spleen Weight (mean ± SD)", "setting": "Rauscher MuLV; 0.05 mg/kg", "result": "0.36 ± 0.11"},
      {"measurement": "Viremia", "setting": "Rauscher MuLV; 0.05 mg/kg", "result": "2.99 ± 0.28", "unit": "log10PFU/ml"},
      {"measurement": "Reduction Splenomegaly (%)", "setting": "Rauscher MuLV; 0.17 mg/kg", "result": 12, "unit": "%"},
      {"measurement": "Spleen Weight (mean ± SD)", "setting": "Rauscher MuLV; 0.17 mg/kg", "result": "0.42 ± 0.26"},
      {"measurement": "Reduction Splenomegaly (%)", "setting": "Rauscher MuLV; 0.5 mg/kg", "result": "−12", "unit": "%"},
      {"measurement": "Spleen Weight (mean ± SD)", "setting": "Rauscher MuLV; 0.5 mg/kg", "result": "0.48 ± 0.3"},
      {"measurement": "Viremia", "setting": "Rauscher MuLV; 0.5 mg/kg", "result": "3.31 ± 0.39", "unit": "log10PFU/ml"},
      {"measurement": "Reduction Splenomegaly (%)", "setting": "Rauscher MuLV; 1.75 mg/kg", "result": 3, "unit": "%"},
      {"measurement": "Spleen Weight (mean ± SD)", "setting": "Rauscher MuLV; 1.75 mg/kg", "result": "0.45 ± 0.39"},
      {"measurement": "Reduction Splenomegaly (%)", "setting": "Rauscher MuLV; 5 mg/kg", "result": 6, "unit": "%"},
      {"measurement": "Spleen Weight (mean ± SD)", "setting": "Rauscher MuLV; 5 mg/kg", "result": "0.44 ± 0.15"},
      {"measurement": "Viremia", "setting": "Rauscher MuLV; 5 mg/kg", "result": "3.43 ± 0.368", "unit": "log10PFU/ml"},
      {"measurement": "% Cytotoxicity (mean +/− S.D.)", "setting": "YAC-1 target cells; dose 1 (μg/kg ip daily 7 days)", "result": "10.7 ± 14", "unit": "%"},
      {"measurement": "Cytotoxicity Change (%)", "setting": "YAC-1 target cells; dose 1", "result": "25 ↑ %"},
      {"measurement": "% Cytotoxicity (mean +/− S.D.)", "setting": "YAC-1 target cells; dose 10 (μg/kg ip daily 7 days)", "result": "14.3 ± 1.7", "unit": "%"},
      {"measurement": "Cytotoxicity Change (%)", "setting": "YAC-1 target cells; dose 10", "result": "67 ↑ %"},
      {"measurement": "% Cytotoxicity (mean +/− S.D.)", "setting": "YAC-1 target cells; dose 1000 (μg/kg ip daily 7 days)", "result": "14.9 ± 2.9", "unit": "%"},
      {"measurement": "Cytotoxicity Change (%)", "setting": "YAC-1 target cells; dose 1000", "result": "75* ↑ %"},
      {"measurement": "Survivors (%)", "setting": "[1]; 24 hrs after LD99 LPS ip, 10 μg/kg ip daily x3 prophylactic", "result": 36, "unit": "%"},
      {"measurement": "Survivors", "setting": "[1]; 24 hrs after LD99 LPS ip, 10 μg/kg ip daily x3 prophylactic, 11 animals", "result": 4},
      {"measurement": "Survivors (%)", "setting": "[1]; 24 hrs after LD99 LPS ip, 100 μg/kg ip daily x3 prophylactic", "result": "80* %"},
      {"measurement": "Survivors", "setting": "[1]; 24 hrs after LD99 LPS ip, 100 μg/kg ip daily x3 prophylactic, 10 animals", "result": 8},
      {"measurement": "Survivors (%)", "setting": "[1]; 30 hrs after LD99 LPS ip, 10 μg/kg ip daily x3 prophylactic", "result": 9, "unit": "%"},
      {"measurement": "Survivors", "setting": "[1]; 30 hrs after LD99 LPS ip, 10 μg/kg ip daily x3 prophylactic, 11 animals", "result": 1},
      {"measurement": "Survivors (%)", "setting": "[1]; 30 hrs after LD99 LPS ip, 100 μg/kg ip daily x3 prophylactic", "result": "40* %"},
      {"measurement": "Survivors", "setting": "[1]; 30 hrs after LD99 LPS ip, 100 μg/kg ip daily x3 prophylactic, 10 animals", "result": 4}
    ]}
  ]
}
